According to PubChem BioAssay AID624144 (National Center for Advancing Translational Sciences (NCATS), 2012):

Tested on: human plasma stability, LC-MS/MS, 48 h
Test: qHTS Assay to Find Inhibitors of T. brucei phosphofructokinase: Human Plasma Stability Profiling
Conditions: at 2 µM; hits give low values

percent remaining in plasma (higher = more stable): 100%
Compound: O=C(Cc1ccc(Cl)c(Cl)c1)Nc1ccc(S(=O)(=O)Nc2ccon2)cc1
